In experiment [1] the test system is Adult houseflies. In words: Housefly KT90 test, 0.00625% oil solution spray in cubic chamber. Type of experiment: in vivo. The following applies: 0.7 ml of 0.00625% oil solution sprayed in 70 cm cubic chamber, counted up to 10 minutes after spraying. The method, then: A solution of 0.00625 part of the present compound (A) in 10 parts of dichloromethane was mixed with 89.99375 parts of deodorized kerosene to obtain a 0.00625% oil solution.
Adult houseflies (5 males and 5 females) were left in a cubic chamber (70 cm at each side). Into the chamber, 0.7 ml of 0.00625% oil solution of the present compound (A) prepared above was sprayed into the chamber with a spray gun at a pressure of 8.8×10^4 Pa from a small window on the side of the chamber. Then, up to 10 minutes after spraying, the number of the knocked-down insects was counted with time (repeated twice). The time required for knocking down 90% of the tested insects (KT90) was calculated from the results.
The same tests were carried out except for using the comparative compound 1 and 4-methoxymethyl-2,3,5,6-tetrafluorobenzyl (1R)-trans-3-(2-cyano-1-propenyl)-2,2-dimethylcyclopropanecarboxylate represented by the formula:
[drawing 8] (The compound described in JP 2004-2363 A; hereinafter, referred to as the comparative compound 2.).

Experiment [2] has as its system Adult houseflies. In words: Housefly knock-down test, 0.025% oil solution spray in cubic chamber. Format: in vivo. The settings on record: 0.7 ml of 0.025% oil solution sprayed in 70 cm cubic chamber, 2 minutes after spraying. The method, then: A solution of 0.025 part of the present compound (A) in 10 parts of dichloromethane was mixed with 89.975 parts of deodorized kerosene to obtain a 0.025% oil solution.
Adult houseflies (5 males and 5 females) were left in a cubic chamber (70 cm at each side). Into the chamber, 0.7 ml of 0.025% oil solution of the present compound (A) prepared above was sprayed with a spray gun at a pressure of 8.8×10^4 Pa from a small window on the side of the chamber. Two minutes after spraying, the number of the knocked-down insects was counted (repeated twice).
The same test was carried out except that 4-propargyl-2,3,5,6-tetrafluorobenzyl (1R)-trans-3-(2-methyl-1-propenyl)-2,2-dimethylcyclopropanecarboxylate represented by the formula:
[drawing 7] (The compound described as compound 2 in TABLE 1 of EP 0196156 A1; hereinafter, referred to as the comparative compound 1) was used instead of the present compound (A).
Knock-down ratios, i.e., ratios of the number of knocked-down insects 2 minutes after the spraying to the number of tested insects, are shown in Table 1.

Take `COCc1c(F)c(F)c(COC(=O)[C@@H]2[C@@H](C=C(C)C#N)C2(C)C)c(F)c1F` [Comparative compound 2, 4-methoxymethyl-2,3,5,6-tetrafluorobenzyl (1R)-trans-3-(2-cyano-1-propenyl)-2,2-dimethylcyclopropanecarboxylate]: the “KT90 (minutes), time required for knocking down 90% of the tested insects” value in the experiment with Adult houseflies [1] stood at 4.3 min.

For `C#CCc1c(F)c(F)c(COC(=O)[C@@H]2[C@@H](C=C(C)C)C2(C)C)c(F)c1F` [Comparative compound 1, 4-propargyl-2,3,5,6-tetrafluorobenzyl (1R)-trans-3-(2-methyl-1-propenyl)-2,2-dimethylcyclopropanecarboxylate], the “Knock-down ratio (%)” value in the experiment with Adult houseflies [2] was determined as 0%. Moreover, the “KT90 (minutes), time required for knocking down 90% of the tested insects” value in the experiment with Adult houseflies [1] was “Not less than 10 minutes”.

As for `C#CCc1c(F)c(F)c(COC(=O)[C@@H]2[C@@H](C=C(C)C#N)C2(C)C)c(F)c1F` [Present compound (A), 4-propargyl-2,3,5,6-tetrafluorobenzyl (1R)-trans-3-(2-cyano-1-propenyl)-2,2-dimethylcyclopropanecarboxylate], in the experiment with Adult houseflies [2], the “Knock-down ratio (%)” value turned out to be 100%. Besides, in the experiment on Adult houseflies [1], the “KT90 (minutes), time required for knocking down 90% of the tested insects” value came to 2.0 min.
